Test results taken from the NIST ThermoML archive (doi:10.1021/acs.jced.8b00176).
± gives the expanded uncertainty stated by the source.

Experiments:
[1] = 100 kPa, Liquid; for viscosity: Falling or rolling sphere viscometry; for speed of sound: Frequency=3 MHz, Single path-length method; for mass density: Vibrating tube method
[2] = xn = mol fraction of the nth substance listed; settings: 100 kPa, Liquid; for viscosity: Falling or rolling sphere viscometry; for speed of sound: Frequency=3 MHz, Single path-length method; for mass density: Vibrating tube method

`CCCCn1cc[n+](C)c1.O=S(=O)([O-])C(F)(F)F` [1-butyl-3-methylimidazolium trifluoromethanesulfonate] showed a viscosity ([1]; 298.15 K) of 82.38 ± 1.7 mPa·s, a speed of sound ([1]; 298.15 K) of 1393.2 ± 2.8 m/s and a mass density ([1]; 298.15 K) of 1297.46 ± 2.4 kg/m3. The viscosity ([1]; 303.15 K) was 66.69 ± 1.2 mPa·s, the speed of sound ([1]; 303.15 K) was 1382.8 ± 2.8 m/s and the mass density ([1]; 303.15 K) was 1293.46 ± 2.4 kg/m3. The viscosity ([1]; 308.15 K) was 52.86 ± 0.96 mPa·s, the speed of sound ([1]; 308.15 K) was 1371.7 ± 2.8 m/s and the mass density ([1]; 308.15 K) was 1289.47 ± 2.4 kg/m3. For the same compound, the viscosity ([1]; 313.15 K) was 43.67 ± 0.96 mPa·s, the speed of sound ([1]; 313.15 K) was 1360.7 ± 2.8 m/s and the mass density ([1]; 313.15 K) was 1285.47 ± 2.4 kg/m3. It also gave a viscosity ([1]; 318.15 K) of 36.29 ± 0.92 mPa·s, a speed of sound ([1]; 318.15 K) of 1349.9 ± 2.8 m/s and a mass density ([1]; 318.15 K) of 1281.47 ± 2.4 kg/m3. For the same compound, the viscosity ([1]; 323.15 K) was 30.57 ± 0.88 mPa·s, the speed of sound ([1]; 323.15 K) was 1338.8 ± 2.8 m/s and the mass density ([1]; 323.15 K) was 1277.48 ± 2.4 kg/m3.
`CC#N` [acetonitrile] showed a viscosity ([1]; 298.15 K) of 0.34 mPa·s, a speed of sound ([1]; 298.15 K) of 1278.5 ± 2.2 m/s and a mass density ([1]; 298.15 K) of 776.714 ± 2 kg/m3. For the same compound, the viscosity ([1]; 303.15 K) was 0.32 mPa·s, the speed of sound ([1]; 303.15 K) was 1258.4 ± 2.2 m/s and the mass density ([1]; 303.15 K) was 771.289 ± 2 kg/m3. For the same compound, the viscosity ([1]; 308.15 K) was 0.31 mPa·s, the speed of sound ([1]; 308.15 K) was 1238.2 ± 2.2 m/s and the mass density ([1]; 308.15 K) was 765.833 ± 2 kg/m3. For the same compound, the viscosity ([1]; 313.15 K) was 0.3 mPa·s, the speed of sound ([1]; 313.15 K) was 1218 ± 2.2 m/s and the mass density ([1]; 313.15 K) was 760.339 ± 2 kg/m3. It also gave a viscosity ([1]; 318.15 K) of 0.29 mPa·s, a speed of sound ([1]; 318.15 K) of 1197.9 ± 2.2 m/s and a mass density ([1]; 318.15 K) of 754.815 ± 2 kg/m3. It also gave a viscosity ([1]; 323.15 K) of 0.28 mPa·s, a speed of sound ([1]; 323.15 K) of 1177.8 ± 2.2 m/s and a mass density ([1]; 323.15 K) of 749.253 ± 2 kg/m3.
With `CC#N` [acetonitrile] + CCCCn1cc[n+](C)c1.O=S(=O)([O-])C(F)(F)F the viscosity ([2]; 298.15 K, x2 = 0) was 0.34 mPa·s, the speed of sound ([2]; 298.15 K, x2 = 0) was 1278.5 ± 2.2 m/s and the mass density ([2]; 298.15 K, x2 = 0) was 776.714 ± 2 kg/m3. It also gave a viscosity ([2]; 303.15 K, x2 = 0) of 0.32 mPa·s, a speed of sound ([2]; 303.15 K, x2 = 0) of 1258.4 ± 2.2 m/s and a mass density ([2]; 303.15 K, x2 = 0) of 771.289 ± 2 kg/m3. For the same compound, the viscosity ([2]; 308.15 K, x2 = 0) was 0.31 mPa·s, the speed of sound ([2]; 308.15 K, x2 = 0) was 1238.2 ± 2.2 m/s and the mass density ([2]; 308.15 K, x2 = 0) was 765.833 ± 2 kg/m3. The viscosity ([2]; 313.15 K, x2 = 0) was 0.3 mPa·s, the speed of sound ([2]; 313.15 K, x2 = 0) was 1218 ± 2.2 m/s and the mass density ([2]; 313.15 K, x2 = 0) was 760.339 ± 2 kg/m3. It also gave a viscosity ([2]; 318.15 K, x2 = 0) of 0.29 mPa·s, a speed of sound ([2]; 318.15 K, x2 = 0) of 1197.9 ± 2.2 m/s and a mass density ([2]; 318.15 K, x2 = 0) of 754.815 ± 2 kg/m3. The viscosity ([2]; 323.15 K, x2 = 0) was 0.28 mPa·s, the speed of sound ([2]; 323.15 K, x2 = 0) was 1177.8 ± 2.2 m/s and the mass density ([2]; 323.15 K, x2 = 0) was 749.253 ± 2 kg/m3.
With `CN(C)C=O` [dimethylformamide] the viscosity ([1]; 298.15 K) was 0.81 ± 0.2 mPa·s, the speed of sound ([1]; 298.15 K) was 1457.1 ± 2.2 m/s and the mass density ([1]; 298.15 K) was 943.934 ± 2 kg/m3. For the same compound, the viscosity ([1]; 303.15 K) was 0.77 ± 0.2 mPa·s, the speed of sound ([1]; 303.15 K) was 1437.8 ± 2.2 m/s and the mass density ([1]; 303.15 K) was 939.162 ± 2 kg/m3. For the same compound, the viscosity ([1]; 308.15 K) was 0.72 ± 0.2 mPa·s, the speed of sound ([1]; 308.15 K) was 1418.5 ± 2.2 m/s and the mass density ([1]; 308.15 K) was 934.373 ± 2 kg/m3. It also gave a viscosity ([1]; 313.15 K) of 0.69 ± 0.2 mPa·s, a speed of sound ([1]; 313.15 K) of 1399.2 ± 2.2 m/s and a mass density ([1]; 313.15 K) of 929.577 ± 2 kg/m3. It also gave a viscosity ([1]; 318.15 K) of 0.65 ± 0.2 mPa·s, a speed of sound ([1]; 318.15 K) of 1379.9 ± 2.2 m/s and a mass density ([1]; 318.15 K) of 924.765 ± 2 kg/m3. For the same compound, the viscosity ([1]; 323.15 K) was 0.62 ± 0.2 mPa·s, the speed of sound ([1]; 323.15 K) was 1360.7 ± 2.2 m/s and the mass density ([1]; 323.15 K) was 919.95 ± 2 kg/m3.
With `CN(C)C=O` [dimethylformamide] + CC#N the viscosity ([2]; 298.15 K, x1 = 1) was 0.81 ± 0.2 mPa·s, the speed of sound ([2]; 298.15 K, x1 = 1) was 1457.1 ± 2.2 m/s and the mass density ([2]; 298.15 K, x1 = 1) was 943.934 ± 2 kg/m3. The viscosity ([2]; 303.15 K, x1 = 1) was 0.77 ± 0.2 mPa·s, the speed of sound ([2]; 303.15 K, x1 = 1) was 1437.8 ± 2.2 m/s and the mass density ([2]; 303.15 K, x1 = 1) was 939.162 ± 2 kg/m3. The viscosity ([2]; 308.15 K, x1 = 1) was 0.72 ± 0.2 mPa·s, the speed of sound ([2]; 308.15 K, x1 = 1) was 1418.5 ± 2.2 m/s and the mass density ([2]; 308.15 K, x1 = 1) was 934.373 ± 2 kg/m3. It also gave a viscosity ([2]; 313.15 K, x1 = 1) of 0.69 ± 0.2 mPa·s, a speed of sound ([2]; 313.15 K, x1 = 1) of 1399.2 ± 2.2 m/s and a mass density ([2]; 313.15 K, x1 = 1) of 929.577 ± 2 kg/m3. The viscosity ([2]; 318.15 K, x1 = 1) was 0.65 ± 0.2 mPa·s, the speed of sound ([2]; 318.15 K, x1 = 1) was 1379.9 ± 2.2 m/s and the mass density ([2]; 318.15 K, x1 = 1) was 924.765 ± 2 kg/m3. The viscosity ([2]; 323.15 K, x1 = 1) was 0.62 ± 0.2 mPa·s, the speed of sound ([2]; 323.15 K, x1 = 1) was 1360.7 ± 2.2 m/s and the mass density ([2]; 323.15 K, x1 = 1) was 919.95 ± 2 kg/m3.
In the case of `CN(C)C=O` [dimethylformamide] + CCCCn1cc[n+](C)c1.O=S(=O)([O-])C(F)(F)F, the viscosity ([2]; 298.15 K, x2 = 0) is reported as 0.81 ± 0.2 mPa·s, the speed of sound ([2]; 298.15 K, x2 = 0) is reported as 1457.1 ± 2.2 m/s and the mass density ([2]; 298.15 K, x2 = 0) is reported as 943.934 ± 2 kg/m3. For the same compound, the viscosity ([2]; 303.15 K, x2 = 0) was 0.77 ± 0.2 mPa·s, the speed of sound ([2]; 303.15 K, x2 = 0) was 1437.8 ± 2.2 m/s and the mass density ([2]; 303.15 K, x2 = 0) was 939.162 ± 2 kg/m3. It also gave a viscosity ([2]; 308.15 K, x2 = 0) of 0.72 ± 0.2 mPa·s, a speed of sound ([2]; 308.15 K, x2 = 0) of 1418.5 ± 2.2 m/s and a mass density ([2]; 308.15 K, x2 = 0) of 934.373 ± 2 kg/m3. The viscosity ([2]; 313.15 K, x2 = 0) was 0.69 ± 0.2 mPa·s, the speed of sound ([2]; 313.15 K, x2 = 0) was 1399.2 ± 2.2 m/s and the mass density ([2]; 313.15 K, x2 = 0) was 929.577 ± 2 kg/m3. The viscosity ([2]; 318.15 K, x2 = 0) was 0.65 ± 0.2 mPa·s, the speed of sound ([2]; 318.15 K, x2 = 0) was 1379.9 ± 2.2 m/s and the mass density ([2]; 318.15 K, x2 = 0) was 924.765 ± 2 kg/m3. The viscosity ([2]; 323.15 K, x2 = 0) was 0.62 ± 0.2 mPa·s, the speed of sound ([2]; 323.15 K, x2 = 0) was 1360.7 ± 2.2 m/s and the mass density ([2]; 323.15 K, x2 = 0) was 919.95 ± 2 kg/m3.
